Laboratory results from ChEMBL document CHEMBL5120871, “Identification of benzamides derivatives of norfloxacin as promising microRNA-21 inhibitors via repressing its transcription” (Bioorg Med Chem, 2022).
Active and inactive are the calls of the source. No cut-off for these calls is given here.

Key:
microRNA 21 [1] = experiment: Inhibition of wild type full length miR-21 in human HeLa cells co-expressing firefly luciferase and renilla luciferase gene assessed as fold change in Luc/Rlu by measuring relative […] intensity at 20 uM by Dual-Luciferase reporter based luminometer analysis; type: cell-based
microRNA 21 [2] = experiment: Inhibition of miR-21 maturation in human LN-229 cells assessed as reduction in pre-miR-21 expression at 30 uM measured upto 24 hrs by RT-PCR analysis relative to control; type: cell-based
microRNA 21 [3] = experiment: Inhibition of miR-21 maturation in human SGC-7901 cells assessed as reduction in pre-miR-21 expression at 30 uM measured upto 24 hrs by RT-PCR analysis relative to control; type: cell-based
microRNA 21 [4] = experiment: Inhibition of miR-21 maturation in human U87 cells assessed as reduction in pre-miR-21 expression at 30 uM measured upto 24 hrs by RT-PCR analysis relative to control; type: cell-based
microRNA 21 [5] = experiment: Inhibition of miR-21 maturation in human MCF7 cells assessed as reduction in pre-miR-21 expression at 30 uM measured upto 24 hrs by RT-PCR analysis relative to control; type: cell-based
HeLa [6] = experiment: Antiproliferative activity against human HeLa cells incubated for 24 hrs by CCK-8 assay; type: functional, cell-based
microRNA 21 [7] = experiment: Inhibition of miR-21 maturation in human MCF7 cells assessed as reduction in pre-miR-21 expression at 5 uM incubated for 48 hrs by RT-PCR analysis relative to control; type: cell-based
microRNA 21 [8] = experiment: Inhibition of miR-21 in human HeLa cells assessed as increase in luciferase activity measured after 48 hrs by bright Glo-luciferase reporter gene assay; type: cell-based
HCT-116 [9] = experiment: Antiproliferative activity against human HCT-116 cells incubated for 24 hrs by CCK-8 assay; type: functional, cell-based; settings: HCT-116, 24 h
microRNA 21 [10] = experiment: Inhibition of miR-21 in human HeLa cells assessed as downregulation of ATF4 level at 10 uM incubated for 48 hrs by RT-qPCR analysis; type: cell-based
HeLa [11] = experiment: Inhibition of cell migration in human HeLa cells at 10 to 20 uM and measured after 24 hrs by crystal violet staining based transwell migration assay; type: functional; settings: dose 10-20 µM
microRNA 21 [12] = experiment: Inhibition of miR-21 in human HeLa cells assessed as downregulation of pre-miR-21 level at 10 uM and measured for 24 to 48 hrs by RT-qPCR analysis; type: cell-based; settings: time 24-48 hrs
HeLa [13] = experiment: Induction of apoptosis in human HeLa cells assessed as early apoptotic cells at 20 uM incubated for 24 hrs by annexin V-FITC and propidium iodide staining based flow cytometry (reference value: 4.35%); type: functional
microRNA 21 [14] = experiment: Inhibition of miR-21 in human HeLa cells assessed as downregulation of ZNF251 level at 10 uM incubated for 48 hrs by RT-qPCR analysis; type: cell-based
microRNA 21 [15] = experiment: Inhibition of miR-21 in human HeLa cells assessed as reduction in mature miR-21 level at 10 to 20 uM measured after 48 hrs by RT-qPCR analysis relative to control; type: cell-based; settings: dose 10-20 µM
microRNA 21 [16] = experiment: Inhibition of miR-21 in human HeLa cells assessed as downregulation of pri-miR-21 level at 10 uM and measured for 24 to 48 hrs by RT-qPCR analysis; type: cell-based; settings: time 24-48 hrs
HCT-116 [17] = experiment: Inhibition of colony formation in human HCT-116 cells incubated for 14 days by crystal violet staining based assay; type: functional, cell-based; settings: dose 0.1-10 µM, time 14.0 day, DDE = dose-dependent effect
[18] = Cytotoxicity against human BEAS-2B cells assessed as reduction in cell proliferation incubated for 24 hrs by CCK-8 assay; type: toxicity, cell-based
microRNA 21 [19] = experiment: Inhibition of miR-21 in human HeLa cells assessed as upregulation of SLIT2 level at 10 uM incubated for 48 hrs by RT-qPCR analysis; type: cell-based
HeLa [20] = experiment: Induction of apoptosis in human HeLa cells assessed as necrotic cells at 10 uM incubated for 24 hrs by annexin V-FITC and propidium iodide staining based flow cytometry (reference value: 0.08%); type: functional
HeLa [21] = experiment: Induction of apoptosis in human HeLa cells assessed as viable cells at 20 uM incubated for 24 hrs by annexin V-FITC and propidium iodide staining based flow cytometry (reference value: 93.54%); type: functional; settings: read-out: Activity
HeLa [22] = experiment: Induction of apoptosis in human HeLa cells assessed as early apoptotic cells at 10 uM incubated for 24 hrs by annexin V-FITC and propidium iodide staining based flow cytometry (reference value: 4.35%); type: functional
HeLa [23] = experiment: Induction of apoptosis in human HeLa cells assessed as late apoptotic cells at 20 uM incubated for 24 hrs by annexin V-FITC and propidium iodide staining based flow cytometry (reference value: 2.03%); type: functional
HeLa [24] = experiment: Induction of apoptosis in human HeLa cells assessed as late apoptotic cells at 10 uM incubated for 24 hrs by annexin V-FITC and propidium iodide staining based flow cytometry (reference value: 2.03%); type: functional
HeLa [25] = experiment: Inhibition of colony formation in human HeLa cells incubated for 14 days by crystal violet staining based assay; type: functional, cell-based; settings: dose 0.1-10 µM, time 14.0 day, DDE = dose-dependent effect
microRNA 21 [26] = experiment: Inhibition of miR-21 in human HeLa cells assessed as reduction in mature miR-21 level at 10 to 20 uM measured after 24 hrs by RT-qPCR analysis; type: cell-based; settings: dose 10-20 µM
microRNA 21 [27] = experiment: Inhibition of miR-21 in human HeLa cells assessed as upregulation of EGR1 level at 10 uM incubated for 48 hrs by RT-qPCR analysis; type: cell-based
microRNA 21 [28] = experiment: Inhibition of wild type full length miR-21 in human HeLa cells co-expressing firefly luciferase and renilla luciferase gene assessed as fold change in Luc/Rlu by measuring relative […] intensity at 10 uM by Dual-Luciferase reporter based luminometer analysis; type: cell-based
HeLa [29] = experiment: Induction of apoptosis in human HeLa cells assessed as viable cells at 10 uM incubated for 24 hrs by annexin V-FITC and propidium iodide staining based flow cytometry (reference value: 93.54%); type: functional; settings: read-out: Activity
microRNA 21 [30] = experiment: Inhibition of miR-21 in human HeLa cells assessed as increase in PTEN level at 10 to 20 uM incubated for 48 hrs by RT-qPCR analysis; type: cell-based; settings: dose 10-20 µM
HeLa [31] = experiment: Induction of apoptosis in human HeLa cells assessed as necrotic cells at 20 uM incubated for 24 hrs by annexin V-FITC and propidium iodide staining based flow cytometry (reference value: 0.08%); type: functional
microRNA 21 [32] = experiment: Inhibition of miR-21 (unknown origin) maturation assessed as cleavage of pre-miR-21 at 5 uM by RT-qPCR analysis relative to control; type: nucleic-acid assay; settings: Homo sapiens

C#CCNC(=O)c1ccc(NC(=O)c2cn(CC)c3cc(N4CCN(Cc5ccccc5)CC4)c(F)cc3c2=O)cc1
fold change (FC) (microRNA 21 [1]): 1.47

CCn1cc(C(=O)NC2CCN(Cc3ccccc3)CC2)c(=O)c2cc(F)c(N3CCNCC3)cc21
fold change (FC) (microRNA 21 [1]): 1.09

C#CCNC(=O)c1ccc(NC(=O)c2ccccc2Br)cc1
fold change (FC) (microRNA 21 [1]): 1.64

CCn1cc(C(=O)Nc2ccc(C(=O)NCC3CC3)cc2)c(=O)c2cc(F)c(N3CCNCC3)cc21
fold change (FC) (microRNA 21 [1]): 0.72

N#CC1CNC(N)NC1N (centres undefined)
inhibition (microRNA 21 [2]): 50%
inhibition (microRNA 21 [3]): 50%
inhibition (microRNA 21 [4]): 50%
inhibition (microRNA 21 [5]): 50%

CCn1cc(C(=O)Nc2ccc(C(=O)NCC(C)C)cc2)c(=O)c2cc(F)c(N3CCNCC3)cc21
fold change (FC) (microRNA 21 [1]): 1.92
IC50 (HeLa [6]): 13.2 µM

C#CCNC(=O)c1cn(CC)c2cc(N3CCN(Cc4ccccc4)CC3)c(F)cc2c1=O
fold change (FC) (microRNA 21 [1]): 1

C#CCNC(=O)c1ccc(NC(=O)c2cn(CC)c3cc(N4CCN(C(=O)CC56CC7CC(CC(C7)C5)C6)CC4)c(F)cc3c2=O)cc1
fold change (FC) (microRNA 21 [1]): 0.98

CN[C@@H]1[C@H](O[C@H]2[C@H](O[C@H]3[C@H](O)[C@@H](O)[C@H](N=C(N)N)[C@@H](O)[C@@H]3N=C(N)N)O[C@@H](C)[C@]2(O)C=O)O[C@@H](CO)[C@H](O)[C@H]1O
inhibition (microRNA 21 [7]): 80%
fold change (FC) (microRNA 21 [1]): 1.1

C#CCNC(=O)c1ccc(NC(=O)c2cn(CC)c3cc(N4CCNCC4)c(F)cc3c2=O)cc1
fold change (FC) (microRNA 21 [1]): 1.15

C#CCNC(=O)c1ccc(/N=N/c2ccccc2)cc1
EC50 (microRNA 21 [8]): 2 µM
fold change (FC) (microRNA 21 [1]): 1.41

CC[C@@]1(O)C(=O)OCc2c1cc1n(c2=O)Cc2cc3cc(O)ccc3nc2-1 [HYDROXYCAMPTOTHECIN]
IC50 (HCT-116 [9]): 0.05 µM
IC50 (HeLa [6]): 0.06 µM

CCn1cc(C(=O)Nc2ccc(C(=O)NC3CCOCC3)cc2)c(=O)c2cc(F)c(N3CCNCC3)cc21
fold change (FC) (microRNA 21 [1]): 0.69

CCCCNC(=O)c1ccc(NC(=O)c2cn(CC)c3cc(N4CCNCC4)c(F)cc3c2=O)cc1
fold change (FC) (microRNA 21 [1]): 0.98

CCn1cc(C(=O)O)c(=O)c2cc(F)c(N3CCNCC3)cc21
fold change (FC) (microRNA 21 [1]): 1.08

CCn1cc(C(=O)Nc2ccc(C(=O)NCCN3CCCCC3)cc2)c(=O)c2cc(F)c(N3CCNCC3)cc21
inhibition (microRNA 21 [10]): Active
Activity (HeLa [11]): Active
inhibition (microRNA 21 [12]): Active
Activity (HeLa [13]): 10.67%
inhibition (microRNA 21 [14]): Active
inhibition (microRNA 21 [15]): Active
inhibition (microRNA 21 [16]): Active
IC50 (HCT-116 [9]): 2.8 µM
inhibition (HCT-116 [17]): Dde
IC50 at 24 h [18]: > 100 µM
inhibition (microRNA 21 [19]): Active
Activity (HeLa [20]): 0.24%
viability at 20 µM (HeLa [21]): 84.6%
Activity (HeLa [22]): 5.74%
Activity (HeLa [23]): 4.18%
Activity (HeLa [24]): 2.23%
inhibition (HeLa [25]): Dde
inhibition (microRNA 21 [26]): Active
inhibition (microRNA 21 [27]): Active
fold change (FC) (microRNA 21 [28]): 1.42
viability at 10 µM (HeLa [29]): 91.8%
fold change (FC) (microRNA 21 [1]): 2.01
inhibition (microRNA 21 [30]): Active
IC50 (HeLa [6]): 5.5 µM
Activity (HeLa [31]): 0.58%

CCn1cc(C(=O)NCCN2CCOCC2)c(=O)c2cc(F)c(N3CCNCC3)cc21
fold change (FC) (microRNA 21 [1]): 0.57

NC[C@H]1O[C@H](O[C@H]2[C@H](O[C@@H]3O[C@H](CSCCNC(=O)CCCCCn4cc(COCCOc5ccc6c(c5)C(=O)N(O)C(=O)C6)nn4)[C@@H](O[C@H]4O[C@H](CN)[C@@H](O)[C@H](O)[C@H]4N)[C@H]3O)[C@@H](O)[C@H](N)C[C@@H]2N)[C@H](N)[C@@H](O)[C@@H]1O
inhibition (microRNA 21 [32]): 90%

CCn1cc(C(=O)Nc2ccc(C(=O)NC(C)C)cc2)c(=O)c2cc(F)c(N3CCNCC3)cc21
fold change (FC) (microRNA 21 [1]): 1.8
IC50 (HeLa [6]): > 100 µM

CCn1cc(C(=O)Nc2ccccc2)c(=O)c2cc(F)c(N3CCN(Cc4ccccc4)CC3)cc21
fold change (FC) (microRNA 21 [1]): 1.24

CCn1cc(C(=O)N2CCCCC2)c(=O)c2cc(F)c(N3CCN(Cc4ccccc4)CC3)cc21
fold change (FC) (microRNA 21 [1]): 1.12

CCN(CC)CCNC(=O)c1ccc(NC(=O)c2cn(CC)c3cc(N4CCNCC4)c(F)cc3c2=O)cc1
fold change (FC) (microRNA 21 [1]): 1.36

CCn1cc(C(=O)Nc2ccc(F)cc2)c(=O)c2cc(F)c(N3CCN(Cc4ccccc4)CC3)cc21
IC50 (HCT-116 [9]): > 100 µM
fold change (FC) (microRNA 21 [1]): 1.63
IC50 (HeLa [6]): > 100 µM

CCn1cc(C(=O)NCCN2CCCCC2)c(=O)c2cc(F)c(N3CCNCC3)cc21
fold change (FC) (microRNA 21 [1]): 0.91

C#CCNC(=O)c1ccc(NC(=O)c2cn(CC)c3cc(N4CCN(CC5CC5)CC4)c(F)cc3c2=O)cc1
fold change (FC) (microRNA 21 [1]): 1.07
